# Experimental data as given in patent US20120238491A1, “IMMUNOLOGICALLY ACTIVE LIPOPEPTIDES AND METHODS FOR USE THEREOF” (THERIMUNEX PHARMACEUTICALS, INC., priority 2009, published 2012).
# Legend:
# IL-6 mRNA = IL-6 mRNA expression in human fibroblasts; type: cell-based; conditions: for IL-6 mRNA elevation relative to a -actin control: 24 hours, p<0.05; for IL-6 mRNA expression increase relative to untreated control: 24 h, normalized to -actin (FIG. 1)
# Experimental: (§1) mRNA Expression Experiments. Normal primary human fibroblasts obtained from the Coriell Institute (Camden, N.J.) were cultured in 70 mm dishes in DMEM supplemented with 10% FBS and 1× penicillin/streptomycin at 37° C. and 5% CO2. Human fibroblasts were incubated in the presence of the serum fractions, compound pDAG, the peptide moiety of pDAG, or diacylglycerol. In the initial experiments we examined the differences between fibroblasts treated with the various serum fractions, synthetic pDAG (the peptide moiety from pDAG or diacylglycerol), fibroblasts treated with LPS as a positive control, and fibroblasts without treatment. The culture medium was stored at −80° C. for ELISA of the excreted cytokine proteins (see below). Total RNA from fibroblasts was extracted using the RNeasy Mini kit (Qiagen, Valencia, Calif.) according to the manufacturer's protocol. To verify the expression of transcripts; 2.0 μg of total RNA was reverse-transcribed using Super-script-III reverse transcriptase (Invitrogen, Carlsbad Calif.), according to the manufacturer's protocol. Transcripts were quantified using SYBR Green PCR amplification (Perkin Elmer, Waltham Mass.). Primers employed in these studies are outlined in Table 6, below. All transcripts were normalized to β-actin. Briefly, 0.4 μg/μL of cDNA was tested with 10 μM of each specific primer and 1× SYBR Green in a total volume of 20 uL.
# (§2) Lipofection Studies. Cells were cultured so that at the time of transfection they were 50-80% confluent. […] PLUS reagent (0.5 μL) and lipofectamine (1 μL) were then added to the peptide Opti-MEM solution, vortexed and incubated at room temperature for 30 min. Five hundred microliters of complete DMEM was added to the fibroblasts and 0.6 μL of the peptide/lipofectamine was added and allowed to incubate overnight. RNA was extracted and processed as described above.
# (§3) Bioassays. The fractions generated from dialysis (methanol/chloroform soluble, methanol/chloroform insoluble, dialysis retentate, and the fractions collected from reversed phase HPLC) were taken to dryness by lyophilization. The freeze-dried solids were weighed and dissolved in the appropriate volume of deionized water to give a final concentration of 1 mg/mL and assayed for mRNA expression (IL-6, IL-8, MIP1α, and MIP1β) in human fibroblasts.
# MCP-1 mRNA = MCP-1 mRNA expression in human fibroblasts; type: cell-based; conditions: for MCP-1 mRNA increase: relative to -actin; for MCP-1 expression in fibroblasts (in words): peptide transfected
# Experimental: as §1, §3
# MIP-1 mRNA = MIP-1 mRNA expression in human fibroblasts; type: cell-based; conditions: for MIP-1 mRNA expression increase: natural pDAG 1:100 dilution, relative to -actin; for MIP-1α expression in fibroblasts (in words): peptide transfected
# Experimental: as §1, §3
# Lability to hydrolysis = type: physicochemical; conditions: acidic and basic conditions
# Experimental: The C8 RP-HPLC peaks eluting between 4.83 and 9.36 min. in a non-purified fraction containing compound pDAG are hydrolysis products of compound pDAG. Therefore, the classical degradation approach to natural product structure elucidation was used. The purified compound pDAG (as a tryptophan complex) was subjected to mild acid hydrolysis, in situ N-terminal sulfonation, and analysis of the hydrolysis products to identify peptide fragments that would account for the entire structure of pDAG.
# Hydrolysis and Derivatization of the Natural Product (pDAG). […] Therefore, […] of native pDAG was subjected to mild acid hydrolysis conditions (1 N HCl in phosphate buffered saline) for 18 hours at 25° C. The post-reaction buffer salts were removed using a C18 spin column (ThermoFisher Scientific) and the hydrolysis products were eluted from the column using 50% CH3CN/0.1% TFA. The final product was brought to dryness by evaporation in vacuo at 4° C. The hydrolysis products were derivatized using the N-terminal sulfonation reagent, 4-sulfophenylisothiocyanate, and analyzed in situ by MALDITOF in an -cyano-4-hydroxycinnamic acid matrix using the method described by Wang. See Wang, D.; Kalb, S. R.; Cotter, R. J. Rapid Commun. Mass Spectrom. 2004, 18, 96-102.
# IL-8 mRNA = IL-8 mRNA expression in human fibroblasts; type: cell-based
# Experimental: as §1, §2
# Bioassays. The fractions generated from dialysis (methanol/chloroform soluble, methanol/chloroform insoluble, dialysis retentate, and the fractions collected from reversed phase HPLC) were taken to dryness by lyophilization. […]
# IL-8 protein = assay: ELISA for secreted IL-8 protein from human fibroblasts; type: cell-based; conditions: 0.3 to 3 ng/mL
# Experimental: Fibroblasts were treated with various concentrations of synthetic pDAG for 24 hours; the media were reserved for ELISA assays of IL-6 and IL-8, and mRNA was extracted from the cells to measure all four cytokines IL-6 mRNA was elevated 20% in response to synthetic pDAG and 40% with natural pDAG relative to a -actin control (p<0.05). […] Compound pDAG induced IL-8 expression by about 5-fold compared to untreated fibroblasts, in dose-response studies (FIG. 2). […] The MCP-1 and MIP-1 mRNA expression in human fibroblasts incubated with approximately equivalent amounts of natural pDAG (1:100 dilution) and synthetic pDAG (3 ng/mL). Both synthetic pDAG and the natural product induced a 3-fold increase in MCP-1 mRNA relative to the -actin control and increased MIP-1α mRNA expression relative to -actin by 15% (FIG. 3).
# ELISA for IL-8 Protein. Human IL-8 was measured by ELISA according to the manufacturer's specifications (eBioscience San Diego, Calif.) in the supernatants of fibroblasts cultured in complete DMEM with varying amounts of pDAG. Briefly, high affinity binding plates were coated with anti-human IL-8 overnight at 4° C. Wells were washed with Wash Buffer five times at 1 min. each wash and blocked with Assay Diluent for 60 min. at room temp. […] The reaction was halted with Stop Solution and the plate read at 450 nm with wavelength subtraction at 570 nm.
# IL-33 mRNA = IL-33 mRNA expression in human fibroblasts; type: cell-based
# Experimental: Therefore we speculated that the diacylglycerol moiety enabled the peptide to cross the cell membrane. To test this hypothesis and to ascertain the biological role of the diacylglycerol moiety in compound pDAG, if any, the peptide moiety transfected into human fibroblasts or diacylglycerol alone were evaluated by measuring the expression of mRNA (IL-1, IL-6, IL-8, IL-18, and IL-33). […] Diacylglycerol could stimulate mRNA expression of IL-33 and IL-18, but not IL-1 in fibroblasts. […] Normal primary human fibroblasts obtained from the Coriell Institute (Camden, N.J.) were cultured in 70 mm dishes in DMEM supplemented with 10% FBS and 1× penicillin/streptomycin at 37° C. and 5% CO2. Human fibroblasts were incubated in the presence of the serum fractions, compound pDAG, the peptide moiety of pDAG, or diacylglycerol. In the initial experiments we examined the differences between fibroblasts treated with the various serum fractions, synthetic pDAG (the peptide moiety from pDAG or diacylglycerol), fibroblasts treated with LPS as a positive control, and fibroblasts without treatment. The culture medium was stored at −80° C. for ELISA of the excreted cytokine proteins (see below). […] Transcripts were quantified using SYBR Green PCR amplification (Perkin Elmer, Waltham Mass.). […]
# IL-18 mRNA = IL-18 mRNA expression in human fibroblasts; type: cell-based
# Experimental: as §1, with “Therefore we speculated that the diacylglycerol moiety enabled the peptide to cross the cell membrane. To test this hypothesis and to ascertain the biological role of the diacylglycerol moiety in compound pDAG, if any, the peptide moiety transfected into human fibroblasts or diacylglycerol alone were evaluated by measuring the expression of mRNA” for “mRNA”, “(IL-1, IL-6, IL-8, IL-18, and IL-33). […] Diacylglycerol could stimulate mRNA expression of IL-33 and IL-18, but not IL-1 in fibroblasts. […]” for “Expression Experiments.”, “uL. Lipofection Studies. Cells were cultured so that at the time of transfection they were 50-80% confluent. Five microliters of the stock peptide moiety from pDAG was diluted in Opti-MEM Reduced Serum Medium to give a final concentration of 5 μg/mL. PLUS reagent (0.5 μL) and lipofectamine (1 μL) were then added to the peptide Opti-MEM solution, vortexed and incubated at room temperature for 30 min. Five hundred microliters of complete DMEM was added to the fibroblasts and 0.6 μL of the peptide/lipofectamine was added and allowed to incubate overnight. RNA was extracted and processed as described above.” for “uL.”
# IL-1 mRNA = IL-1 mRNA expression in human fibroblasts; type: cell-based
# Experimental: as §1, with “Therefore we speculated that the diacylglycerol moiety enabled the peptide to cross the cell membrane. To test this hypothesis and to ascertain the biological role of the diacylglycerol moiety in compound pDAG, if any, the peptide moiety transfected into human fibroblasts or diacylglycerol alone were evaluated by measuring the expression of mRNA” for “mRNA”, “(IL-1, IL-6, IL-8, IL-18, and IL-33). […] Diacylglycerol could stimulate mRNA expression of IL-33 and IL-18, but not IL-1 in fibroblasts. […]” for “Expression Experiments.”, “uL. Lipofection Studies. Cells were cultured so that at the time of transfection they were 50-80% confluent. Five microliters of the stock peptide moiety from pDAG was diluted in Opti-MEM Reduced Serum Medium to give a final concentration of 5 μg/mL. […]” for “uL.”
# [1] = tested on: established bacterial and viral infections; assay: Administration to cows, number of white blood cells; type: in vivo; conditions: various amounts
# [2] = tested on: established bacterial and viral infections; assay: Administration to dogs, survival rate; type: in vivo; conditions: various amounts
# IgM production = assay: Administration to rabbits, adjuvant effect on IgM production; type: in vivo; conditions: administered with other drugs
# C. pneumonia = C. pneumonia load in THP-1 cells; type: cell-based; conditions: 25 ng/ml and 50 ng/ml
# Description: The pDAG produced in accordance with the invention is believed to induce fibroblast IL-6 expression similar to that of the natural product, and to induce fibroblast IL-8 mRNA and protein expression, to increase MCP-1 expression and to induce MIP-1alpha.
# HBV = HBV viral load in hepatocytes; type: cell-based; conditions: 25 to 400 ng/ml
# human fibroblasts = assay: Inflammatory cytokine and chemokine production by human fibroblasts (overall stimulation); type: cell-based
# Experimental: as §1
# as §2, with “overnight.” for “overnight. RNA was extracted and processed as described above.”
# [3] = increasing concentrations of synthetic pDAG
# [4] = transfected peptide 10 ng/mL (~3 nM)
compound,measurement,setting,value
1-peptidyl-2-arachidonoyl-3-stearoyl glyceride [natural pDAG],IL-6 mRNA elevation relative to a -actin control,IL-6 mRNA,40%
same,IL-6 mRNA expression increase relative to untreated control,IL-6 mRNA; natural pDAG 1:100 dilution,~30%
same,MCP-1 mRNA increase,MCP-1 mRNA; natural pDAG 1:100 dilution,3 fold
same,MIP-1 mRNA expression increase,MIP-1 mRNA,~60%
same,MIP-1 mRNA expression increase,MIP-1 mRNA; listed as natural product,15%
same,lability to hydrolysis,Lability to hydrolysis; listed as Native pDAG,labile to acid hydrolysis
same,lability to hydrolysis,Lability to hydrolysis; listed as serum-derived compound pDAG,especially labile to hydrolysis
1-peptidyl-2-arachidonoyl-3-stearoyl glyceride [pDAG],IL-6 mRNA elevation relative to a -actin control,IL-6 mRNA; listed as synthetic pDAG,20%
same,IL-6 mRNA expression increase relative to untreated control,IL-6 mRNA; synthetic pDAG 5 ng/mL,~30%
same,IL-8 expression induction compared to untreated fibroblasts,"IL-8 mRNA; dose-response studies (FIG. 2), 24 hours",about 5 fold
same,IL-8 mRNA expression dose response,IL-8 mRNA; [3],negative dose response
same,concentration giving maximal effect (EC99) on secreted IL-8,"IL-8 protein; ELISA, 24 hours",3 ng/mL
same,secreted IL-8 protein dose response,IL-8 protein; [3],positive linear dose response
same,MCP-1 expression in fibroblasts (in words),MCP-1 mRNA,increased expression
same,MCP-1 mRNA increase,MCP-1 mRNA; synthetic pDAG 3 ng/mL,3 fold
same,MIP-1α expression in fibroblasts (in words),MIP-1 mRNA,increased expression
same,induction of IL-33,IL-33 mRNA,found to induce
same,induction of IL-18,IL-18 mRNA,found to induce
same,induction of IL-1alpha,IL-1 mRNA,found to induce
same,induction of IL-1beta,IL-1 mRNA,found to induce
same,reduction of the number of white blood cells,[1],nearly threefold
same,survival rate compared with untreated dogs,[2],over doubling the survival rate
same,adjuvant effect in terms of IgM production,IgM production,significant adjuvant effect
same,C. pneumonia load,C. pneumonia,reduction of C. pneumonia load
same,HBV viral load,HBV,reduction of HBV viral load
same,EC99 (apparent / possible maximum effective concentration),"human fibroblasts; pDAG, human fibroblasts, cytokine and chemokine production",3 ng/mL
same,EC99,"human fibroblasts; pDAG, signaling in human fibroblasts",~1 nM
"CCCCC/C=C\C/C=C\C/C=C\C/C=C\CCCC(=O)O[C@@H](CO)COC(=O)CCCCCCCCCCCCCCCCC [diacylglycerol, 1-stearoyl-2-arachidonoyl-sn-glycerol, reference compound]",increase in IL-18 mRNA expression,"IL-18 mRNA; diacylglycerol alone, ~30 nM",20%
acALYDKGYTSKEQKDCVGI [peptide moiety of pDAG],IL-6 mRNA vs untreated or lipofectamine-only fibroblasts,IL-6 mRNA; [4],substantially increased
same,IL-8 mRNA vs untreated or lipofectamine-only fibroblasts,IL-8 mRNA; [4],substantially increased
same,MCP-1 expression in fibroblasts (in words),MCP-1 mRNA,increased expression
same,MIP-1α expression in fibroblasts (in words),MIP-1 mRNA,increased expression
same,IL-33 mRNA vs untreated or lipofectamine-only fibroblasts,IL-33 mRNA; [4],substantially increased
same,IL-18 mRNA vs untreated or lipofectamine-only fibroblasts,IL-18 mRNA; [4],substantially increased
same,increase in IL-18 mRNA expression,"IL-18 mRNA; transfected peptide, ~10 nM",> 3 fold
same,IL-1 mRNA vs untreated or lipofectamine-only fibroblasts,IL-1 mRNA; [4],substantially increased
same,fold higher concentration than pDAG needed for comparable responses,"human fibroblasts; peptide moiety, not transfected","1,000 fold"
